Assay results from patent publication US7456167B2, “Cyclopropyl fused indolobenzazepine HCV NS5B inhibitors” (Bristol-Myers Squibb Company, priority 2006, dated 2008).
pEC50, pIC50: −log10 of the molar value. Read-outs that look alike come from different tables or passages of the source.

Tests used:
[1] = test system: HCV replicon cells; assay: HCV replicon FRET assay; format: cell-based; details: Hepatitis C virus
Excerpt: FRET Assay Preparation. To perform the HCV FRET screening assay, 96-well cell culture plates were used. The FRET peptide (Anaspec, Inc.) (Taliani et al., Anal. Biochem. 1996, 240, 60-67) contains a fluorescence donor, EDANS, near one end of the peptide and an acceptor, DABCYL, near the other end. The fluorescence of the peptide is quenched by […] resonance energy transfer (RET) between the donor and the acceptor, but as the NS3 protease cleaves the peptide the products are released from RET quenching and the fluorescence of the donor becomes apparent. The assay reagent was made as follows: 5× cell Luciferase cell culture lysis reagent from Promega (#E153A) diluted to 1× with dH2O, NaCl added to 150 mM final, the FRET peptide diluted to 20 uM final from a 2 mM stock.
To prepare plates, HCV replicon cells, with or without a Renilla luciferase reporter gene, were trypsinized and placed into each well of a 96-well plate with titrated test compounds added in columns 3 through 12; columns 1 and 2 contained a control compound (HCV protease inhibitor), and the bottom row contained cells without compound. The plates were then placed in a CO2 incubator at 37° C.
Assays. Subsequent to addition of the test compounds described above (FRET Assay Preparation), at various times the plate was removed and Alamar blue solution (Trek Diagnostics, #00-100) was added per well as a measure of cellular toxicity. After reading in a Cytoflour 4000 instrument (PE Biosystems), plates were rinsed with PBS and then used for FRET assay by the addition of 30 ul of the FRET peptide assay reagent described above (FRET Assay Preparation) per well. The plate was then placed into the Cytoflour 4000 instrument which had been set to 340 excite/490 emission, automatic mode for 20 cycles and the plate read in a kinetic mode. Typically, the signal to noise using an endpoint analysis after the reads was at least three-fold. Alternatively, after Alamar blue reading, plates were rinsed with PBS, 50 ul of DMEM (high glucose) without phenol red was added and plates were then used for luciferase assay using the Promega Dual-Glo Luciferase Assay System.
Compound analysis was determined by quantification of the relative HCV replicon inhibition and the relative cytotoxicity values. To calculate cytoxicity values, the average Alamar Blue fluorescence signals from the control wells were set as 100% non-toxic. The individual signals in each of the compound test wells were then divided by the average control signal and multiplied by 100% to determine […]. To calculate the HCV replicon inhibition values, an average background value was obtained from the two wells containing the highest amount of HCV protease inhibitor at the end of the assay period. These numbers were similar to those obtained from naïve Huh-7 cells.
The background numbers were then subtracted from the average signal obtained from the control wells and this number was used as 100% activity. The individual signals in each of the compound test wells were then divided by the averaged control values after background subtraction and multiplied by 100% to determine percent activity. EC50 values for a protease inhibitor titration were calculated as the concentration which caused a 50% reduction in FRET or luciferase activity. The two numbers generated for the compound plate, percent cytoxicity and percent activity were used to determine compounds of interest for further analysis.

[2] = target: T1, HCV NS5B RdRp genotype 1b (Hepatitis C virus genotype 1b, UniProt Q9WMX2); assay: Modified HCV NS5B RdRp enzyme assay (preincubation protocol); format: biochemical
T1 construct: The protein was expressed with an 18 amino acid C-terminal truncation to enhance the solubility; made in house; host or cells: E. coli BL21(DE3)
T1 sequence (Q9WMX2 2420-2992): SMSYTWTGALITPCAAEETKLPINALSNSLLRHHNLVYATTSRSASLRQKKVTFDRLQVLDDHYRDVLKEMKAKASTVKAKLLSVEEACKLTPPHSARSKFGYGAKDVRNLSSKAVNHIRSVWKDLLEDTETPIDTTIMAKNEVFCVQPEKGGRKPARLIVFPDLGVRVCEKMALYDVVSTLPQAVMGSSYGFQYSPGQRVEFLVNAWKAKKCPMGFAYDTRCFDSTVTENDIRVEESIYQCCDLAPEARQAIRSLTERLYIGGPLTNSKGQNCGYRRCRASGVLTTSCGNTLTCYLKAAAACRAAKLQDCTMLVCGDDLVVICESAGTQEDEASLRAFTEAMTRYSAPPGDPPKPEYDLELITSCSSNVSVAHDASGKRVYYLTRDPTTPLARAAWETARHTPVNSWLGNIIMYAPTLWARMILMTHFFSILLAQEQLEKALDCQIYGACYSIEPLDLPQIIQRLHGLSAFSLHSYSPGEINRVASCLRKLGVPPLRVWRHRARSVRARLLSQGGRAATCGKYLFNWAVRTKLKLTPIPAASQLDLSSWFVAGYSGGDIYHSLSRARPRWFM
Protocol: HCV NS5B RdRp cloning, expression, and purification. The cDNA encoding the NS5B protein of HCV, genotype 1b, was cloned into the pET21a expression vector. The protein was expressed with an 18 amino acid C-terminal truncation to enhance the solubility. The E. coli competent cell line BL21(DE3) was used for expression of the protein. Cultures were grown at 37° C. for ˜4 hours until the cultures reached an optical density of 2.0 at 600 nm. The cultures were cooled to 20° C. and induced with 1 mM IPTG. Fresh ampicillin was added to a final concentration of 50 μg/ml and the cells were grown overnight at 20° C.
Cell pellets (3 L) were lysed for purification to yield 15-24 mgs of purified NS5B. The lysis buffer consisted of 20 mM Tris-HCl, pH 7.4, 500 mM NaCl, 0.5% triton X-100, 1 mM DTT, 1 mM EDTA, 20% glycerol, 0.5 mg/ml lysozyme, 10 mM MgCl2, 15 ug/ml deoxyribonuclease I, and Complete TM protease inhibitor tablets (Roche). After addition of the lysis buffer, frozen cell pellets were resuspended using a tissue homogenizer. To reduce the viscosity of the sample, aliquots of the lysate were sonicated on ice using a microtip attached to a Branson sonicator. The sonicated lysate was centrifuged at 100,000×g for 1 hr at 4° C. and filtered through a 0.2 μm filter unit (Corning).
The protein was purified using three sequential chromatography steps: Heparin sepharose CL-6B, polyU sepharose 4B, and Hitrap SP sepharose (Pharmacia). The chromatography buffers were identical to the lysis buffer but contained no lysozyme, deoxyribonuclease I, MgCl2 or protease inhibitor and the NaCl concentration of the buffer was adjusted according to the requirements for charging the protein onto the column. Each column was eluted with a NaCl gradient which varied in length from 5-50 column volumes depending on the column type. After the final chromatography step, the resulting purity of the enzyme is >90% based on SDS-PAGE analysis. The enzyme was aliquoted and stored at −80° C.
Standard HCV NS5B RdRp enzyme assay. HCV RdRp genotype 1b assays were run in a final volume of 60 μl in 96 well plates (Costar 3912). The assay buffer is composed of 20 mM Hepes, pH 7.5, 2.5 mM KCl, 2.5 mM MgCl2, 1 mM DTT, 1.6 U RNAse inhibitor (Promega N2515), 0.1 mg/ml BSA (Promega R3961), and 2% glycerol. All compounds were serially diluted (3-fold) in DMSO and diluted further in water such that the final concentration of DMSO in the assay was 2%. HCV RdRp genotype 1b enzyme was used at a final concentration of 28 nM. A polyA template was used at 6 nM, and a biotinylated oligo-dT12 primer was used at 180 nM final concentration. Template was obtained commercially (Amersham 27-4110). Biotinylated primer was prepared by Sigma Genosys. 3H-UTP was used at 0.6 μCi (0.29 μM total UTP). Reactions were initiated by the addition of enzyme, incubated at 30° C. for 60 min, and stopped by adding 25 μl of 50 mM EDTA containing SPA beads (4 μg/μl, Amersham RPNQ 0007). Plates were read on a Packard Top Count NXT after >1 hr incubation at room temperature.
Modified HCV NS5B RdRp enzyme assay. A modified enzyme assay was performed essentially as described for the standard enzyme assay except for the following: The biotinylated oligo dT12 primer was precaptured on streptavidin-coated SPA beads by mixing primer and beads in assay buffer and incubating at room temperature for one hour. Unbound primer was removed after centrifugation. The primer-bound beads were resuspended in 20 mM Hepes buffer, pH 7.5 and used in the assay at final concentrations of 20 nM primer and 0.67 μg/μl beads. Order of addition in the assay: enzyme (14 nM) was added to diluted compound followed by the addition of a mixture of template (0.2 nM), 3H-UTP (0.6 μCi, 0.29 μM), and primer-bound beads, to initiate the reaction; concentrations given are final. Reactions were allowed to proceed for 4 hours at 30° C.
IC50 values for compounds were determined using seven different [I]. […]

[3] = HCV replicon cells, FRET assay, read-out: EC50
[4] = HCV NS5B RdRp genotype 1b, preincubation protocol, read-out: IC50

Row | SMILES | pEC50 [1] | pIC50 [2] | pEC50 [1, 3] | pIC50 [2, 4]
1 | COc1ccc2c(c1)C1CC1(S(=O)(=O)N1C3CCC1CC(C)(O)C3)Cn1c-2c(C2CCCCC2)c2ccc(C(=O)NS(=O)(=O)C(C)C)cc21 (centres unmarked) | 6.00 to 7.70 | 6.00 to 7.70 | – | –
2 | COc1ccc2c(c1)C1CC1(S(=O)(=O)N1C[C@@H](C)N(C)[C@@H](C)C1)Cn1c-2c(C2CCCCC2)c2ccc(C(=O)NS(=O)(=O)N3CCOCC3)cc21 (some centres unmarked) | – | – | 6.00 to 7.70 | 6.00 to 7.70
3 | COc1ccc2c(c1)C1CC1(S(=O)(=O)N(C)CC(=O)N1CCOCC1)Cn1c-2c(C2CCCCC2)c2ccc(C(=O)NS(=O)(=O)N(C)C)cc21 (centres unmarked) | – | – | 6.00 to 7.70 | 6.00 to 7.70
4 | CN(C)S(=O)(=O)NC(=O)c1ccc2c(C3CCCCC3)c3n(c2c1)CC(S(=O)(=O)N1CCOCC1)=Cc1ccccc1-3 | – | – | 6.00 to 7.70 | 6.00 to 7.70
5 | COc1ccc2c(c1)C1CC1(S(=O)(=O)N(C)CC(=O)N1CCOCC1)Cn1c-2c(C2CCCCC2)c2ccc(C(=O)O)cc21 (centres unmarked) | – | – | 6.00 to 7.70 | 6.00 to 7.70
6 | CCN(C)S(=O)(=O)NC(=O)c1ccc2c(C3CCCCC3)c3n(c2c1)CC1(S(=O)(=O)N2C[C@@H](C)N(C)[C@@H](C)C2)CC1c1cc(OC)ccc1-3 (some centres unmarked) | – | – | 6.00 to 7.70 | 6.00 to 7.70
7 | COc1ccc2c(c1)C1CC1(S(=O)(=O)N1C[C@@H](C)O[C@@H](C)C1)Cn1c-2c(C2CCCCC2)c2ccc(C(=O)NS(=O)(=O)N(C)C)cc21 (some centres unmarked) | – | – | 6.00 to 7.70 | 6.00 to 7.70
8 | COc1ccc2c(c1)C1CC1(S(=O)(=O)N1CCC1)Cn1c-2c(C2CCCCC2)c2ccc(C(=O)NS(=O)(=O)N3CCOCC3)cc21 (centres unmarked) | – | – | 6.00 to 7.70 | 6.00 to 7.70
9 | COc1ccc2c(c1)C1CC1(S(=O)(=O)N1CCCN(C)CC1)Cn1c-2c(C2CCCCC2)c2ccc(C(=O)O)cc21 (centres unmarked) | – | – | 6.00 to 7.70 | 6.00 to 7.70
10 | CCN1CC2CC1CN2S(=O)(=O)C12CC1c1cc(OC)ccc1-c1c(C3CCCCC3)c3ccc(C(=O)NS(=O)(=O)N(C)C)cc3n1C2 (centres unmarked) | – | – | 6.00 to 7.70 | 6.00 to 7.70
11 | COc1ccc2c(c1)C1CC1(S(=O)(=O)N1C3CC1CN(C)C3)Cn1c-2c(C2CCCCC2)c2ccc(C(=O)NS(=O)(=O)N3CCOCC3)cc21 (centres unmarked) | – | – | 6.00 to 7.70 | 6.00 to 7.70
12 | COc1ccc2c(c1)C1CC1(S(=O)(=O)N1CCN3CCC1CC3)Cn1c-2c(C2CCCCC2)c2ccc(C(=O)NS(=O)(=O)N3CCOCC3)cc21 (centres unmarked) | – | – | 6.00 to 7.70 | 6.00 to 7.70
13 | COc1ccc2c(c1)C1CC1(S(=O)(=O)N1CC3C[C@H]1CN3C)Cn1c-2c(C2CCCCC2)c2ccc(C(=O)NS(=O)(=O)N(C)C)cc21 (some centres unmarked) | – | – | 6.00 to 7.70 | 6.00 to 7.70
